Patent US11236120B2, “Azithromycin derivatives with epithelial barrier enhancement properties” (EpiEndo Pharmaceuticals ehf, priority 2015, dated 2022)
In brackets after ≈: the same amount, converted by molar mass.

What was measured:
[1] = Solubility in 10 mM phosphate buffer (pH 7.4); format: physicochemical; conditions: pH 7.4, aqueous buffer, kinetic from dmso stock, 60 minutes at room temperature, filtered, read-out: MTS Solubility in Buffer (pH 7.4)
Protocol: Solubility in 10 mM Phosphate Buffer (pH 7.4)
The solubility sample testing of the compounds was performed by in phosphate buffer at pH 7.4 and using HPLC-MS detection. A stock solution of […] in DMSO was prepared for each compound. For the solubility test sample, 100 μL of the stock solution was diluted with 3.9 mL of a 10 mM phosphate buffer at […] to a final concentration of […]. The buffer solution was left to stand for 60 minutes at room temperature and then filtered. The filtrate was analyzed against two calibration points of the same analyte prepared at […] using HPLC-MS. These calibration points were prepared from the same stock solution as the solubility sample by diluting it with DMSO:H2O (1:1) 1:40 and then again 1:10. The chromatographic signal area of the analyte in the solubility sample was then compared to the chromatographic signal area of the two calibration samples.
(§1) The chromatographic separation was performed on a Waters HPLC-MS system using a 50×2.1 mm×Bridge C18 column and a gradient elution of Water with 0.1% formic acid and acetonitrile with 0.1% formic acid. The analytes were analyzed in positive electro-spray mode using the (M+H)^+ in single ion recording.

[2] = Stability in human plasma; format: in vitro ADME; conditions: room temperature
Protocol: (§2) Stability in Mouse and Human Plasma
(§3) The stability of the compounds in mouse and human plasma was performed using protein precipitation as sample clean-up and HPLC-MS detection. The plasma stability studies of the compounds was performed at room temperature for up to 4 hours. A stock solution of […] in DMSO was prepared for each compound. For the plasma stability samples, 100 μL of the stock solution was diluted with 3.9 mL of either mouse or human plasma to a final concentration of […]. The plasma was left to equilibrate for 10 minutes at room temperature before the first analysis. For each analyzed time point ([…]) a 100 μL aliquot of the plasma was removed and protein precipitation (PPT) was performed on the aliquot by adding 900 μL of (ACN:DMSO) 95:5. The precipitated sample was shaken for 60 seconds and then centrifuged. The supernatant was transferred to an HPLC vial and analyzed using HPLC-MS. The chromatographic signal area of the samples at the different time points were then compared against each other, by setting the initial analysis at t=0 min as 100% and then calculating the %-value for each subsequent time point.
as §1

[3] = Stability in mouse plasma; format: in vitro ADME; conditions: room temperature
Protocol: as §2, §3, §1

Row | Compound | solubility at 60 min [1] [µM] | Degradation in Human Plasma at RT [2] | Degradation in Mouse Plasma at RT [3]
1 | CC[C@H]1OC(=O)[C@H](C)[C@@H](O)[C@H](C)[C@@H](O[C@@H]2O[C@H](C)C[C@H](N(C)C(=O)c3ccccc3)[C@H]2O)[C@](C)(O)C[C@@H](C)CN(C)[C@H](C)[C@@H](O)[C@]1(C)O [Example 7, N-[(2S,3R,4S,6R)-2-[[(2R,3S,4R,5R,8R,10R,11R,12S,13S,14R)-2-ethyl-3,4,10,13-tetrahydroxy-3,5,6,8,10,12,14-heptamethyl-15-oxo-1-oxa-6-azacyclopentadec-11-yl]oxy]-3-hydroxy-6-methyl-tetrahydropyran-4-yl]-N-methyl-benzamide] | 0.23 (≈ 0.157 µg/mL) | Stable | 
2 | CC[C@H]1OC(=O)[C@H](C)[C@@H](O)[C@H](C)[C@@H](O[C@@H]2O[C@H](C)C[C@H](N(C)C)[C@H]2OC(=O)c2ccc(-c3ccc(S(C)(=O)=O)cc3)cc2)[C@](C)(O)C[C@@H](C)CN(C)[C@H](C)[C@@H](O)[C@]1(C)O [Example 12, [(2S,3R,4S,6R)-4-(dimethylamino)-2-[[(2R,3S,4R,5R,8R,10R,11R,12S,13S,14R)-2-ethyl-3,4,10,13-tetrahydroxy-3,5,6,8,10,12,14-heptamethyl-15-oxo-1-oxa-6-azacyclopentadec-11-yl]oxy]-6-methyl-tetrahydropyran-3-yl]4-(4-methylsulfonylphenyl) benzoate] | 0.3 (≈ 0.255 µg/mL) | 2 % per hour | 2 % per hour
3 | CC[C@H]1OC(=O)[C@H](C)[C@@H](O)[C@H](C)[C@@H](O[C@@H]2O[C@H](C)C[C@H](N(C)C)[C@H]2OC(=O)CCC(=O)O)[C@](C)(O)C[C@@H](C)CN(C)[C@H](C)[C@@H](O)[C@]1(C)O [Example 17, 4-[(2S,3R,4S,6R)-4-(dimethylamino)-2-[[(2R,3S,4R,5R,8R,10R,11R,12S,13S,14R)-2-ethyl-3,4,10,13-tetrahydroxy-3,5,6,8,10,12,14-heptamethyl-15-oxo-1-oxa-6-azacyclopentadec-11-yl]oxy]-6-methyl-tetrahydropyran-3-yl]oxy-4-oxo-butanoic acid] | 0.66 (≈ 0.456 µg/mL) | 20 % per hour | ca. 20% per hour
4 | CC[C@H]1OC(=O)[C@H](C)[C@@H](O)[C@H](C)[C@@H](O[C@@H]2O[C@H](C)C[C@H](N(C)C(=O)CCC(=O)O)[C@H]2O)[C@](C)(O)C[C@@H](C)CN(C)[C@H](C)[C@@H](O)[C@]1(C)O [Example 18, 4-[[(2S,3R,4S,6R)-2-[[(2R,3S,4R,5R,8R,10R,11R,12S,13S,14R)-2-ethyl-3,4,10,13-tetrahydroxy-3,5,6,8,10,12,14-heptamethyl-15-oxo-1-oxa-6-azacyclopentadec-11-yl]oxy]-3-hydroxy-6-methyl-tetrahydropyran-4-yl]-methyl-amino]-4-oxo-butanoic acid] | 0.4 (≈ 0.271 µg/mL) | Stable | 
5 | CCc1ccc(C(=O)O[C@H]2[C@H](O[C@@H]3[C@@H](C)[C@H](O)[C@@H](C)C(=O)O[C@H](CC)[C@@](C)(O)[C@H](O)[C@@H](C)N(C)C[C@H](C)C[C@@]3(C)O)O[C@H](C)C[C@@H]2N(C)C)cc1 [Example 22, [(2S,3R,4S,6R)-4-(dimethylamino)-2-[[(2R,3S,4R,5R,8R,10R,11R,12S,13S,14R)-2-ethyl-3,4,10,13-tetrahydroxy-3,5,6,8,10,12,14-heptamethyl-15-oxo-1-oxa-6-azacyclopentadec-11-yl]oxy]-6-methyl-tetrahydropyran-3-yl]4-ethylbenzoate] | 1.43 (≈ 1.03 µg/mL) | Stable | Stable
6 | CC[C@H]1OC(=O)[C@H](C)[C@@H](O)[C@H](C)[C@@H](O[C@@H]2O[C@H](C)C[C@H](N(C)C)[C@H]2OC(=O)c2ccc3ccccc3c2)[C@](C)(O)C[C@@H](C)CN(C)[C@H](C)[C@@H](O)[C@]1(C)O [Example 24, [(2S,3R,4S,6R)-4-(dimethylamino)-2-[[(2R,3S,4R,5R,8R,10R,11R,12S,13S,14R)-2-ethyl-3,4,10,13-tetrahydroxy-3,5,6,8,10,12,14-heptamethyl-15-oxo-1-oxa-6-azacyclopentadec-11-yl]oxy]-6-methyl-tetrahydropyran-3-yl]naphthalene-2-carboxylate] | 2.4 (≈ 1.79 µg/mL) | Stable | Stable
7 | CC[C@H]1OC(=O)[C@H](C)[C@@H](O)[C@H](C)[C@@H](O[C@@H]2O[C@H](C)C[C@H](N(C)C(=O)COCc3ccccc3)[C@H]2O)[C@](C)(O)C[C@@H](C)CN(C)[C@H](C)[C@@H](O)[C@]1(C)O [Example 26, 2-benzyloxy-N-[(2S,3R,4S,6R)-2-[[(2R,3S,4R,5R,8R,10R,11R,12S,13S,14R)-2-ethyl-3,4,10,13-tetrahydroxy-3,5,6,8,10,12,14-heptamethyl-15-oxo-1-oxa-6-azacyclopentadec-11-yl]oxy]-3-hydroxy-6-methyl-tetrahydropyran-4-yl]-N-methyl-acetamide] | 0.3 (≈ 0.217 µg/mL) | Stable | 4 % per hour
8 | CC[C@H]1OC(=O)[C@H](C)[C@@H](O)[C@H](C)[C@@H](O[C@@H]2O[C@H](C)C[C@H](N(C)C(=O)CNC(=O)OCc3ccccc3)[C@H]2O)[C@](C)(O)C[C@@H](C)CN(C)[C@H](C)[C@@H](O)[C@]1(C)O [Example 27, Benzyl N-[2-[[(2S,3R,4S,6R)-2-[[(2R,3S,4R,5R,8R,10R,11R,12S,13S,14R)-2-ethyl-3,4,10,13-tetrahydroxy-3,5,6,8,10,12,14-heptamethyl-15-oxo-1-oxa-6-azacyclopentadec-11-yl]oxy]-3-hydroxy-6-methyl-tetrahydropyran-4-yl]-methyl-amino]-2-oxo-ethyl]carbamate] | 0.3 (≈ 0.23 µg/mL) | Stable | 3 % per hour
9 | CC[C@H]1OC(=O)[C@H](C)[C@@H](O)[C@H](C)[C@@H](O[C@@H]2O[C@H](C)C[C@H](N(C)C(=O)CCOc3ccccc3)[C@H]2O)[C@](C)(O)C[C@@H](C)CN(C)[C@H](C)[C@@H](O)[C@]1(C)O [Example 28, N-[(2S,3R,4S,6R)-2-[[(2R,3S,4R,5R,8R,10R,11R,12S,13S,14R)-2-ethyl-3,4,10,13-tetrahydroxy-3,5,6,8,10,12,14-heptamethyl-15-oxo-1-oxa-6-azacyclopentadec-11-yl]oxy]-3-hydroxy-6-methyl-tetrahydropyran-4-yl]-N-methyl-3-phenoxy-propanamide] | 1.42 (≈ 1.03 µg/mL) | Stable | Stable
10 | CC[C@H]1OC(=O)[C@H](C)[C@@H](O)[C@H](C)[C@@H](O[C@@H]2O[C@H](C)C[C@H](N(C)C(=O)Cc3ccccc3)[C@H]2O)[C@](C)(O)C[C@@H](C)CN(C)[C@H](C)[C@@H](O)[C@]1(C)O [Example 29, N-[(2S,3R,4S,6R)-2-[[(2R,3S,4R,5R,8R,10R,11R,12S,13S,14R)-2-ethyl-3,4,10,13-tetrahydroxy-3,5,6,8,10,12,14-heptamethyl-15-oxo-1-oxa-6-azacyclopentadec-11-yl]oxy]-3-hydroxy-6-methyl-tetrahydropyran-4-yl]-N-methyl-2-phenyl-acetamide] | 0.77 (≈ 0.535 µg/mL) | 2 % per hour | Stable
11 | CC[C@H]1OC(=O)[C@H](C)[C@@H](O)[C@H](C)[C@@H](O[C@@H]2O[C@H](C)C[C@H](NC)[C@H]2O)[C@](C)(O)C[C@@H](C)CN(C)[C@H](C)[C@@H](O)[C@]1(C)O [Example 30, (2R,3S,4R,5R,8R,10R,11R,12S,13S,14R)-2-ethyl-3,4,10,13-tetrahydroxy-11-[(2S,3R,4S,6R)-3-hydroxy-6-methyl-4-(methylamino)tetrahydropyran-2-yl]oxy-3,5,6,8,10,12,14-heptamethyl-1-oxa-6-azacyclopentadecan-15-one] | 0.49 (≈ 0.283 µg/mL) | Stable | Stable
